Measurements as given in patent US12421517B2, “Genetic modification of mammalian cells to confer resistance to CSF1R antagonists” (THE REGENTS OF THE UNIVERSITY OF CALIFORNIA, priority 2021, dated 2025).
Entries after “also recorded” stand apart in the source; their conditions may differ.

Tests used:
[1] = tested on: wild-type (WT) iPSC-microglia; test: LIVE/DEAD viability/cytotoxicity assay; format: cell-based, human; details: 500 nM or 1 uM, 24 hours
Procedure: (§1) FIGS. 5A and 5B show G795A iPSC-derived microglia are resistant to CSF1R antagonist-induced cell death. As cells can die from processes other than caspase-mediated apoptosis, it is important to determine whether the G795A mutation provides a more broad-based resistance to any form of cell death induced by CSF1R antagonists. Therefore, G795A and wild-type (WT) iPSC-microglia were treated for 24 hours with either 500 nM (FIG. 5A) or 1 uM (FIG. 5B) of DMSO vehicle control or one of four CSF1R antagonists; PLX3397, PLX5622, Edicotinib, and BLZ945. The percent of live versus dead cells was then quantified using a two-color viability/cytotoxicity approach (Thermo L3224; LIVE/DEAD™ Viability/Cytotoxicity Kit). Very few dead microglia are observed 24 hours after treatment with DMSO. […] Live cells are denoted with a circle.

G795A iPSC-microglia [2] = test: LIVE/DEAD viability/cytotoxicity assay; format: cell-based, human; details: 500 nM or 1 uM, 24 hours
Procedure: as §1

WT microglia [3] = test: Caspase 3/7 cell death assay (IncuCyte, 24 h imaging); format: cell-based, human; details: 250 nM, 500 nM, 1 μm, versus DMSO control
From the text: (§2) FIGS. 4A, 4B, 4C, 4D, and 4E show human stem cell-derived microglia are also susceptible to and killed by CSF1R inhibition in vitro. […] Images captured on Incucyte S3 live-cell imager. […] Images captured on Incucyte S3 live-cell imager. […] Images captured on Incucyte S3 live-cell imager. […] Images captured on Incucyte S3 live-cell imager. […] For all panels, n=4 images in six independent wells were quantified. Data represented as mean values±SEM.
(§3) Strategy 1: A crystal structure of the CSF1R receptor bound to an antagonist (PMID: 31434879) to predict amino acid substitutions that may sterically hinder the binding of CSF1R antagonists while not impairing the normal binding of ATP into the same binding pocket. The crystal structure of PLX5622 bound to human CSF1R was obtained and the ATP binding pocket was examined (FIG. 7A). Through molecular modeling single amino acid changes were predicted that would likely impair the binding of PLX5622 or PLX3397 or other CSF1R antagonists while not disrupting normal ATP binding to CSF1R. […] Other mutations could also be explored to prevent binding (FIG. 7D). […] The resulting iPSCs were then differentiated into microglia and exposed to varying concentrations of either PLX3397 or PLX5622. To detect microglial cell death (apoptosis) a caspase-3/7 fluorogenic reporter was used. […] FIG. 4F provided representative images of cell density (phase-contrast microscopy, 1st column) and fluorescent Caspase-3/7 activity (2nd column) across each dose of PLX3397 and PLX5622.
(§4) Resistance to each of the CSF1R inhibitors tested was quantified using a fluorogenic caspase 3/7 detector (Essen BioScience) and time-lapse imaging over 24 hours.
(§5) Cell death assay: iPS-microglia were plated at 70K cells per 96-well plate (6 wells per line per condition). At time 0, all microglia were treated with IncuCyte Caspase-3/7 Green Apoptosis Assay Reagent 1:1000. Cells were maintained in the described medium: fresh complete medium+0.1% DMSO, complete media+250 nM PLX3397, complete medium+500 nM PLX3397, complete medium+1 μm PLX3397, complete medium+250 nM PLX5622, complete medium+500 nM PLX5622, complete medium+1 μm PLX5622, complete medium+250 nM Edicotinib, complete medium+500 nM Edicotinib, complete medium+1 μm Edicotinib, complete medium+250 nM BLZ945, complete medium+500 nM BLZ945, complete medium+1 μm BLZ945. Four 20× images per well were collected every hour for 24 hours. Using IncuCyte 2020B software, image masks for phase confluence (visually gated out apoptotic cells) as well as caspase 3/7 signal (green) were generated. Graphs display caspase normalized to phase confluence, completed with 3 lines: WT, G795A, G795C (see FIGS. 4A, 4B, 4C, 4D, and 4E).

G795C iPSC-microglia = test: as above; format: cell-based, human; details: 250 nM, 500 nM, 1 μm, versus DMSO control
From the text: as §2, §3, §4, §5

G795A iPSC-microglia [4] = test: as above; format: cell-based, human; details: 250 nM, 500 nM, 1 μm, versus DMSO control
From the text: as §2, §3, §4, §5

[5] = tested on: CSF1R-G795A human iPSC-microglia; test: Quantification of human iPSC-microglial engraftment (Ku80+/Iba1+) in adult hCSF1 mice; format: in vivo; details: after CSF1R-G795A iPSC-microglia transplantation, 600 mg/kg PLX3397 in food
Procedure: In contrast, when CSF1R-G795A iPSC-microglia transplantation is followed with treatment of mice for 10 days with PLX3397 containing mouse chow (600 mg/kg PLX3397 in food), the percent of human microglia increases to almost 25%. After 30 days of PLX3397 treatment (600 mg/kg PLX3397 in food), 90-95% of all microglia in the brain are human as evidenced by co-expression of Ku80 and IBA1. By transplanting CSF1R-G795A iPSC-microglia and varying the concentration and duration of CSF1R antagonist treatment either before, during, or after transplantation, one can control the degree of human iPSC-microglial engraftment.

G795A xMGs = test: Xenotransplanted human microglia in adult mice, PLX3397 chow, immunohistochemistry; format: in vivo; details: 600 mg/kg in rodent chow ad libitum, 4 weeks
From the text: (§6) FIGS. 11A, 11B, 110, 11D, 11E, 11F, 11G, 11H, 11I, and 11J show G795A iPSC-derived microglia are resistant to CSF1R […] treatment and enable robust engraftment of human microglia within the adult mammalian brain. Xenotransplantation-compatible mice received bilateral stereotactic intrahippocampal injections of 500,000 iPSC-derived human microglia (xMGs) at 2-months of age. Mice received xMGs differentiated from either a homozygous CSF1R-resistant G795A human IPSO line or an isogenic unmodified Wad-Type human iPSC. At […], mice were treated with 600 mg/kg of PLX3397 in rodent chow ad libitum for 4 weeks duration. Mice were then sacrificed, and half-brains were examined by fluorescent immunohistochemistry and confocal microscopy.

wild-type human xMGs = test: as above; format: in vivo; details: 600 mg/kg in rodent chow ad libitum, 4 weeks
From the text: as §6

WT microglia [6] = test: RNA-seq after 24-hour treatment versus DMSO; format: cell-based, human; details: FDR≤0.05, log 2(FC)≥±1
From the text: (§7) FIGS. 2A, 2B, 2C, 2D, 2E, and 2F show selected CSF1R mutations have little effect on transcriptomic signature while simultaneously imparting resistance to PLX5622.

MUT2 (G795C) microglia = test: RNA-seq after 24-hour treatment versus DMSO; format: cell-based, human
From the text: as §7

MUT1 (G795A) microglia = test: RNA-seq after 24-hour treatment versus DMSO; format: cell-based, human
From the text: as §7

Compound	cell death (live versus dead cells) [1]	cell death (live versus dead cells) (G795A iPSC-microglia [2])	caspase 3/7 levels (cell death, apoptosis) (WT microglia [3])	caspase 3/7 levels (cell death, apoptosis) (G795C iPSC-microglia)	caspase 3/7 levels (cell death, apoptosis) (G795A iPSC-microglia [4])	percent of human microglia (Ku80+/Iba1+) of total microglia ([5]; 10 days)	percent of human microglia (Ku80+/Iba1+) of total microglia ([5]; 30 days)	survival and expansion of transplanted xMGs in the brain (G795A xMGs)	survival of transplanted xMGs in the brain (wild-type human xMGs)	transcriptomic alterations versus DMSO-treated cells (WT microglia [6])	transcriptomic alterations versus DMSO-treated cells (MUT2 (G795C) microglia)	transcriptomic alterations versus DMSO-treated cells (MUT1 (G795A) microglia)
CNC(=O)c1cc(Oc2ccc3nc(N[C@@H]4CCCC[C@H]4O)sc3c2)ccn1 [BLZ945]	substantial cell death	little-to-no cell death	significant levels of increased caspase	no significant increase in caspase levels	no significant increase in caspase levels							
CC1(C)CC=C(c2nc(C3CC(C)(C)OC(C)(C)C3)ccc2NC(=O)c2nc(C#N)c[nH]2)CC1 [Edicotinib]	substantial cell death	little-to-no cell death	significant levels of increased caspase	no significant increase in caspase levels	no significant increase in caspase levels							
FC(F)(F)c1ccc(CNc2ccc(Cc3c[nH]c4ncc(Cl)cc34)cn2)cn1 [PLX3397]	substantial cell death	little-to-no cell death	robust dose-dependent induction of apoptosis; also recorded: significant levels of increased caspase	complete resistance to cell death; also recorded: no significant increase in caspase levels	complete resistance to cell death; also recorded: no significant increase in caspase levels	~25%	90-95%	proliferate and expand	only a handful of wild-type human xMGs survive			
COc1ncc(F)cc1CNc1ccc(Cc2c[nH]c3ncc(C)cc23)c(F)n1 [PLX5622]	substantial cell death	little-to-no cell death	robust dose-dependent induction of apoptosis; also recorded: significant levels of increased caspase	complete resistance to cell death; also recorded: no significant increase in caspase levels	complete resistance to cell death; also recorded: no significant increase in caspase levels					induced significant transcriptomic alterations	failed to significantly alter gene expression	failed to significantly alter gene expression
